{
  "source": "patent US10519177B2",
  "about": "“Heterocyclic compounds and uses thereof” (Plexxikon Inc., priority 2013, dated 2019)",
  "data": [
    {"target": "BRD4-BD1 (44-164) (Homo sapiens (Human), UniProt O60885)", "assay": "Alphascreen binding assay BRD4-BD1", "settings": "BRD4(1) H4; read-out: Biochemical activity (IC50 μM) BRD4(1) H4", "procedure,_shortened": "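His-tagged E. coli-expressed BRD4 BD1 (44-164) or BD1-BD2 (1-477) incubated 1 h at room temperature with biotinylated tetra-acetylated histone H4 1-21 peptide and compound in HEPES pH 7.5, NaCl, BSA, Triton X-100, DTT buffer. Ni-chelate/streptavidin AlphaScreen beads (7.5 µg/ml) added, read after 30 min; pIC50 from four-parameter fit.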", "units": {"IC50": "µM"}, "values": [
      {"smiles": "Cc1noc(C)c1-c1cnc2c(-c3cnn(C)c3)cn(C(CF)c3ccccc3)c2c1", "note": "(stereo not shown) [P-0187, 4-[1-(2-fluoro-1-phenyl-ethyl)-3-(1-methylpyrazol-4-yl)pyrrolo[3,2-b]pyridin-6-yl]-3,5-dimethyl-isoxazole]", "IC50": "< 1"},
      {"smiles": "CCn1cc(-c2cn(S(=O)(=O)c3ccccc3)c3cc(-c4c(C)noc4C)cnc23)cn1", "note": "[P-0124, 4-[1-(benzenesulfonyl)-3-(1-ethylpyrazol-4-yl)pyrrolo[3,2-b]pyridin-6-yl]-3,5-dimethyl-isoxazole]", "IC50": "< 1"},
      {"smiles": "Cc1noc(C)c1-c1cnc2c(I)cn(S(=O)(=O)c3ccccc3)c2c1", "note": "[P-0076, 4-[1-(benzenesulfonyl)-3-iodo-pyrrolo[3,2-b]pyridin-6-yl]-3,5-dimethyl-isoxazole]", "IC50": "< 1"},
      {"smiles": "CCc1[nH]c2ncc(-c3c(C)noc3C)cc2c1C(OC)C1CCC(F)(F)CC1", "note": "(stereo not shown) [P-0045, 4-[3-[(4,4-difluorocyclohexyl)-methoxy-methyl]-2-ethyl-1H-pyrrolo[2,3-b]pyridin-5-yl]-3,5-dimethyl-isoxazole]", "IC50": "< 1"},
      {"smiles": "Cc1noc(C)c1-c1cnc2c(-c3cnn(C)c3)cn(S(=O)(=O)c3cccc(F)c3)c2c1", "note": "[P-0122, 4-[1-(3-fluorophenyl)sulfonyl-3-(1-methyl-pyrazol-4-yl)pyrrolo[3,2-b]pyridin-6-yl]-3,5-dimethyl-isoxazole]", "IC50": "< 1"},
      {"smiles": "Cc1noc(C)c1-c1cnc2ccn(S(=O)(=O)C3CCCC3)c2c1", "note": "[P-0037, 4-(1-cyclopentyl-sulfonylpyrrolo[3,2-b]pyridin-6-yl)-3,5-dimethyl-isoxazole]", "IC50": "< 1"},
      {"smiles": "Cc1noc(C)c1-c1cnc2[nH]cc(C(C)(C)c3ccc(F)cc3)c2c1", "note": "[P-0063, 4-[3-[1-(4-fluorophenyl)-1-methyl-ethyl]-1H-pyrrolo[2,3-b]pyridin-5-yl]-3,5-dimethyl-isoxazole]", "IC50": "< 1"},
      {"smiles": "Cc1noc(C)c1-c1cnc2c(-c3cnn(C)c3)cn([C@@H](C)c3ccccc3)c2c1", "note": "[P-0222, 3,5-dimethyl-4-[3-(1-methylpyrazol-4-yl)-1-[(1S)-1-phenylethyl]pyrrolo[3,2-b]pyridin-6-yl]isoxazole]", "IC50": "< 1"},
      {"smiles": "Cc1noc(C)c1-c1cnc2c(-c3cnn(C)c3)cn(CC3CC(F)(F)C3)c2c1", "note": "[P-0213, 4-[1-[(3,3-difluorocyclobutyl)methyl]-3-(1-methylpyrazol-4-yl)pyrrolo[3,2-b]pyridin-6-yl]-3,5-dimethyl-isoxazole]", "IC50": "< 1"},
      {"smiles": "COCCn1cc(-c2cn(C(C)c3ccccc3)c3cc(-c4c(C)noc4C)cnc23)cn1", "note": "(stereo not shown) [P-0203, 4-[3-[1-(2-methoxyethyl)pyrazol-4-yl]-1-(1-phenyl-ethyl)pyrrolo[3,2-b]pyridin-6-yl]-3,5-dimethyl-isoxazole]", "IC50": "< 1"},
      {"smiles": "Cc1noc(C)c1-c1cnc2c(c1)c(Sc1ccccc1)cn2-c1cnn(C)c1", "note": "[P-0184, 3,5-dimethyl-4-[1-(1-methylpyrazol-4-yl)-3-phenylsulfanyl-pyrrolo[2,3-b]pyridin-5-yl]isoxazole]", "IC50": "< 1"},
      {"smiles": "Cc1noc(C)c1-c1cnc2[nH]cc(Cc3cccnc3)c2c1", "note": "[P-0003, 3,5-dimethyl-4-[3-(3-pyridylmethyl)-1H-pyrrolo[2,3-b]pyridin-5-yl]isoxazole]", "IC50": "< 1"},
      {"smiles": "C=CCn1cc(-c2cn(C(C)c3ccccc3)c3cc(-c4c(C)noc4C)cnc23)cn1", "note": "(stereo not shown) [P-0201, 4-[3-(1-allylpyrazol-4-yl)-1-(1-phenylethyl)pyrrolo[3,2-b]pyridin-6-yl]-3,5-dimethyl-isoxazole]", "IC50": "< 1"},
      {"smiles": "CCn1cc(-c2cn(S(=O)(=O)c3ccccc3F)c3cc(-c4c(C)noc4C)cnc23)cn1", "note": "[P-0125, 4-[3-(1-ethylpyrazol-4-yl)-1-(2-fluorophenyl)sulfonyl-pyrrolo[3,2-b]pyridin-6-yl]-3,5-dimethyl-isoxazole]", "IC50": "< 1"},
      {"smiles": "Cc1noc(C)c1-c1cnc2[nH]cc(Cc3ccccc3OC(F)F)c2c1", "note": "[P-0047, 4-[3-[[2-(difluoro-methoxy)phenyl]methyl]-1H-pyrrolo[2,3-b]pyridin-5-yl]-3,5-dimethyl-isoxazole]", "IC50": "< 1"},
      {"smiles": "C=CCn1cc(-c2cn(Cc3ccccc3)c3cc(-c4c(C)noc4C)cnc23)cn1", "note": "[P-0160, 4-[3-(1-allylpyrazol-4-yl)-1-benzyl-pyrrolo[3,2-b]pyridin-6-yl]-3,5-dimethyl-isoxazole]", "IC50": "< 1"},
      {"smiles": "Cc1noc(C)c1-c1cnc2[nH]cc(Cc3ccccc3Cl)c2c1", "note": "[P-0026, 4-[3-[(2-chlorophenyl)methyl]-1H-pyrrolo[2,3-b]pyridin-5-yl]-3,5-dimethyl-isoxazole]", "IC50": "< 1"},
      {"smiles": "Cc1noc(C)c1-c1cnc2c(-c3cnn(C4CCOC4)c3)cn(S(=O)(=O)c3ccccc3)c2c1", "note": "(stereo not shown) [P-0148, 4-[1-(benzenesulfonyl)-3-(1-tetrahydrofuran-3-ylpyrazol-4-yl)pyrrolo[3,2-b]pyridin-6-yl]-3,5-dimethyl-isoxazole]", "IC50": "< 1"},
      {"smiles": "Cc1noc(C)c1-c1cnc2c(-c3cnn(C)c3)cn(C(C(=O)O)c3ccccc3)c2c1", "note": "(stereo not shown) [P-0206, 2-[6-(3,5-dimethylisoxazol-4-yl)-3-(1-methylpyrazol-4-yl)pyrrolo[3,2-b]pyridin-1-yl]-2-phenyl-acetic acid]", "IC50": "< 1"},
      {"smiles": "C=CCn1cc(-c2cn(S(=O)(=O)c3ccccc3F)c3cc(-c4c(C)noc4C)cnc23)cn1", "note": "[P-0127, 4-[3-(1-allylpyrazol-4-yl)-1-(2-fluorophenyl)sulfonyl-pyrrolo[3,2-b]pyridin-6-yl]-3,5-dimethyl-isoxazole]", "IC50": "< 1"},
      {"smiles": "Cc1noc(C)c1-c1cnc2[nH]cc(S(=O)(=O)c3cccc(F)c3)c2c1", "note": "[P-0143, 4-[3-(3-fluorophenyl)sulfonyl-1H-pyrrolo[2,3-b]pyridin-5-yl]-3,5-dimethyl-isoxazole]", "IC50": "< 1"},
      {"smiles": "COCCn1cc(-c2cn(S(=O)(=O)c3ccccc3)c3cc(-c4c(C)noc4C)cnc23)cn1", "note": "[P-0147, 4-[1-(benzenesulfonyl)-3-[1-(2-methoxyethyl)pyrazol-4-yl]pyrrolo[3,2-b]pyridin-6-yl]-3,5-dimethyl-isoxazole]", "IC50": "< 1"},
      {"smiles": "Cc1noc(C)c1-c1cnc2c(-c3cnn(C)c3)cn(S(=O)(=O)c3ccccc3)c2c1", "note": "[P-0110, 4-[1-(benzenesulfonyl)-3-(1-methylpyrazol-4-yl)pyrrolo[3,2-b]pyridin-6-yl]-3,5-dimethyl-isoxazole]", "IC50": "< 1"},
      {"smiles": "CCCS(=O)(=O)n1cc(-c2cnn(CCOC)c2)c2ncc(-c3c(C)noc3C)cc21", "note": "[P-0152, 4-[3-[1-(2-methoxy-ethyl)pyrazol-4-yl]-1-propylsulfonyl-pyrrolo[3,2-b]pyridin-6-yl]-3,5-dimethyl-isoxazole]", "IC50": "< 1"},
      {"smiles": "Cc1noc(C)c1-c1cnc2c(-c3cnn(C)c3)cn(C(CO)c3ccccc3)c2c1", "note": "(stereo not shown) [P-0192, 2-[6-(3,5-dimethylisoxazol-4-yl)-3-(1-methylpyrazol-4-yl)pyrrolo[3,2-b]pyridin-1-yl]-2-phenyl-ethanol]", "IC50": "< 1"},
      {"smiles": "Cc1noc(C)c1-c1cnc2c(-c3cnn(C)c3)cn(C(C(=O)NC3CC3)c3ccccc3)c2c1", "note": "(stereo not shown) [P-0207, N-cyclopropyl-2-[6-(3,5-dimethylisoxazol-4-yl)-3-(1-methylpyrazol-4-yl)pyrrolo[3,2-b]pyridin-1-yl]-2-phenyl-acetamide]", "IC50": "< 1"},
      {"smiles": "Cc1noc(C)c1-c1cnc2[nH]cc(Sc3cccc(F)c3)c2c1", "note": "[P-0141, 4-[3-(3-fluorophenyl)sulfanyl-1H-pyrrolo[2,3-b]pyridin-5-yl]-3,5-dimethyl-isoxazole]", "IC50": "< 1"},
      {"smiles": "Cc1noc(C)c1-c1cnc2[nH]c(C)c(C(O)c3cccnc3)c2c1", "note": "(stereo not shown) [P-0009, [5-(3,5-dimethylisoxazol-4-yl)-2-methyl-1H-pyrrolo[2,3-b]pyridin-3-yl]-(3-pyridyl)methanol]", "IC50": "< 1"},
      {"smiles": "Cc1noc(C)c1-c1cnc2[nH]cc(S(=O)(=O)c3ccccc3)c2c1", "note": "[P-0145, 4-[3-(benzenesulfonyl)-1H-pyrrolo[2,3-b]pyridin-5-yl]-3,5-dimethyl-isoxazole]", "IC50": "< 1"},
      {"smiles": "COCCn1cc(-c2cn(S(=O)(=O)C3CCCC3)c3cc(-c4c(C)noc4C)cnc23)cn1", "note": "[P-0151, 4-[1-cyclopentyl-sulfonyl-3-[1-(2-methoxyethyl)pyrazol-4-yl]pyrrolo[3,2-b]pyridin-6-yl]-3,5-dimethyl-isoxazole]", "IC50": "< 1"},
      {"smiles": "Cc1noc(C)c1-c1cnc2[nH]c(-c3ccc(F)cc3)c(Cc3cccnc3)c2c1", "note": "[P-0007, 4-[2-(4-fluorophenyl)-3-(3-pyridylmethyl)-1H-pyrrolo[2,3-b]pyridin-5-yl]-3,5-dimethyl-isoxazole]", "IC50": "< 1"},
      {"smiles": "Cc1noc(C)c1-c1cnc2c(-c3cnn(C)c3)cn(Cc3ccccc3OC(F)(F)F)c2c1", "note": "[P-0194, 3,5-dimethyl-4-[3-(1-methylpyrazol-4-yl)-1-[[2-(trifluoromethoxy)phenyl]methyl]pyrrolo[3,2-b]pyridin-6-yl]isoxazole]", "IC50": "< 1"},
      {"smiles": "CCCS(=O)(=O)n1cc(-c2cnn(C(F)F)c2)c2ncc(-c3c(C)noc3C)cc21", "note": "[P-0135, 4-[3-[1-(difluoro-methyl)pyrazol-4-yl]-1-propylsulfonyl-pyrrolo[3,2-b]pyridin-6-yl]-3,5-dimethyl-isoxazole]", "IC50": "< 1"},
      {"smiles": "C=CCn1cc(-c2cn(S(=O)(=O)CCC(F)(F)F)c3cc(-c4c(C)noc4C)cnc23)cn1", "note": "[P-0129, 4-[3-(1-allylpyrazol-4-yl)-1-(3,3,3-trifluoro-propylsulfonyl)pyrrolo[3,2-b]pyridin-6-yl]-3,5-dimethyl-isoxazole]", "IC50": "< 1"},
      {"smiles": "Cc1noc(C)c1-c1cnc2ccn(S(=O)(=O)C3CCCCC3)c2c1", "note": "[P-0066, 4-(1-cyclohexylsulfonyl-pyrrolo[3,2-b]pyridin-6-yl)-3,5-dimethyl-isoxazole]", "IC50": "< 1"},
      {"smiles": "Cc1noc(C)c1-c1cnc2[nH]cc(C(O)c3ccccc3OC(F)F)c2c1", "note": "(stereo not shown) [P-0040, [2-(difluoromethoxy)phenyl]-[5-(3,5-dimethylisoxazol-4-yl)-1H-pyrrolo[2,3-b]pyridin-3-yl]methanol]", "IC50": "< 1"},
      {"smiles": "Cc1noc(C)c1-c1cnc2c(-c3cnn(C)c3)cn(Cc3ccccn3)c2c1", "note": "[P-0198, 3,5-dimethyl-4-[3-(1-methylpyrazol-4-yl)-1-(2-pyridylmethyl)pyrrolo[3,2-b]pyridin-6-yl]isoxazole]", "IC50": "< 1"}
    ]}
  ]
}
